This assay has as its system P. falciparum 3D7 growth, pLDH absorbance. Kind of assay: P. falciparum 3D7 growth inhibition, dose response, strain 3D7 (AID 2305).

Where “and” joins values, the source holds several entries; their conditions need not be identical. Identical values can stand only once.

What is called IC50 is the concentration needed to halve the response being measured. On to `Cc1cccc2[nH]c(-c3ccc(-c4ccc(NC(=O)Nc5ccsc5)cc4)s3)nc12`, for which the IC50 is 110 nM. Then `CCc1ccc(CN2CCC(CN(C(=O)c3ccccc3)c3ccc(Cl)cc3)CC2)cc1`, with 990 nM. Then `COc1ccc2ncc(OC)c(CCN3CC[C@@H](NCc4ccc5c(n4)NC(=O)CS5)[C@H](O)C3)c2n1`, with 830 nM. Molecule `Cc1ccc(C2CCN(CCCCNC(=O)c3ccc(NC(=O)c4ccc(Cl)cc4)cc3)CC2)c(OCC(F)(F)F)c1` returned an IC50 of 280 nM. Then `CCOC(=O)N1NC(=O)N(c2ccccc2)C1(c1ccccc1)c1ccccc1`, with 700 nM; and `CCC[C@@H]([C@@H](CC1CCC(C)CC1)C(=O)N[C@@H](CCCNc1ncccn1)C(=O)Nc1nccs1)N(O)C=O` (some centres not stated), with 190 nM; and `CCCCCCCc1cc(O)c2c(c1)OC(C)(C)c1ccncc1-2`, with 1150 nM.

`C#CCOc1ccc(N2C(N)=NC(N)=NC2(C)C)cc1`: the IC50 worked out at 70 nM. In the case of `CN1CCN(CCCN(Cc2cccc(-c3cccc(CNC4CCCC4)c3)c2)C(=O)/C=C/c2ccccc2)CC1`, the IC50 was determined as 780 nM. Compared with the last molecule, the IC50 is about 11-fold higher. `COc1ccc2nccc([C@@H](O)CN3CCC(NCc4ccc(OC)c(NC=O)c4)CC3)c2c1` returned an IC50 of 750 nM. Then `CN1C[C@@H](c2ccccc2)c2cc(O)c(CN3CCCCC3)cc2C[C@H]1Cc1ccccc1`, with 180 nM. The molecule `C=C[C@H]1CN(CCCCCCC)CC[C@H]1CCN(C)c1ccnc2ccc(OC)cc12` gave an IC50 of 450 nM. Compared with the last molecule, the IC50 is about 2.5-fold higher. Molecule `CC1(C)N=C(N)N=C(N)N1c1ccc(Oc2ccccc2)cc1` returned an IC50 of 340 nM. As for `COc1ccc2nccc([C@@H](O)CN3CCC(NC[C@H](Cc4ccccc4)NC(=O)OC(C)(C)C)CC3)c2c1`, the IC50 stood at 230 nM. The IC50 values of the last two molecules are within 1.5-fold of each other. Then `O=[N+]([O-])c1nc(Br)n(Cc2ccc(Cl)cc2)n1`, with 360 nM; and `Cc1nc(N)nc(N)c1Oc1cccc(Cl)c1`, with 870 nM; and `COc1ccc2nc(C)cc(NN=Cc3ccccc3)c2c1`, with 1030 nM.

In the case of `O=C(Nc1ccccc1)Nc1cccc(-c2nn3c(OCCN4CCCC4)cccc3c2-c2ccncc2)c1`, the IC50 came to 400 nM.

With `O=C(/C=C/c1ccc([N+](=O)[O-])cc1)N1CCC(NS(=O)(=O)c2ccc(F)cc2)CC1`, the IC50 stood at 820 nM. This IC50 lies about 2-fold higher than the previous one.

As for `Cn1cc(CCNc2ccnc(N3CCC(c4ncc[nH]4)CC3)n2)c2ccccc21`, the IC50 amounted to 1200 nM. Then `COc1cc(COc2c(C)nc(N)nc2N)cc(OC)c1OC`, with 330 nM. Then `NCc1cccc(-c2cccc(CN(C(=O)Nc3ccccc3)C3CCN(Cc4ccccc4)CC3)c2)c1`, with 830 nM; and `Cc1cc(C)c2c(c1)C(=NO)CCN2`, with 940 nM; and `O=C(Nc1ccc(Cn2ncc(N3CCCNCC3)c(Cl)c2=O)cc1)Nc1cccc(SC(F)(F)F)c1`, with 680 nM. `CC1(C)N=C(N)N=C(N)N1c1cccc(C(F)(F)F)c1`: the IC50 came to 10 nM.

As for `Cc1cccc2[nH]c(-c3ccc(-c4cccc(CN5CCC(C(N)=O)CC5)c4)s3)nc12`, the IC50 was found to be 1260 nM. Then `Oc1ccc(Br)cc1C(O)CNCc1ccccc1OCc1ccccc1` (configuration not stated), with 170 nM; and `CS(=O)(=O)c1cccc2sc(N3CCN(C(=O)c4ccc([N+](=O)[O-])o4)CC3)nc12`, with 1240 nM; and `O=C(c1ccc([N+](=O)[O-])o1)N1CCC(Cc2ccc(C(F)(F)F)cc2)CC1`, with 170 nM. Then `Nc1nc(N)c2c(ccc3nn(Cc4cccnc4)cc32)n1`, with 360 nM; and `Cc1nn(CC(C)C)c2sc(C(=O)Nc3nc(-c4ccccn4)cs3)cc12`, with 960 nM. Then `Cc1cc(N2CCN(C)CC2)nc2ccc(NC(=O)c3cccc(N(C)C)c3)cc12`, with 950 nM; and `CN1CCN(Cc2ccc(-c3ccc4c(Nc5cc(O)c(F)cc5Cl)ccnc4c3)o2)CC1`, with 130 nM. As for `CCCCN(CCCC)CCOc1cc2c(cc1OC)CCN2C(=O)/C=C/c1ccccc1Cl`, the IC50 was found to be 1180 nM. Then `Cc1ccc(Nc2nc3cc(N(C)c4ccnc(Nc5cccc(CS(C)(=O)=O)c5)n4)ccc3o2)cc1`, with 970 nM; and `O=C(C=Cc1ccc(Br)cc1)N1CCC(CCN2CCC(c3c[nH]c4ccccc34)CC2)CC1`, with 920 nM; and `O=C(/C=C/c1ccccc1F)NC1CCC(CCN2CCc3ccc(-c4cccnc4)cc3CC2)CC1` (configuration not stated), with 900 nM. Then `FC(F)(F)c1ccccc1OCc1cc(-c2ccncc2)c(COc2ccccc2C(F)(F)F)cc1C1=CCNCC1`, with 890 nM. In turn, `O=C(Cc1ccc(Nc2nccc(Nc3cccc4[nH]ncc34)n2)cc1)Nc1ccc(C(F)(F)F)cc1` returned an IC50 of 890 nM. Then `NC(=O)c1cccc(Nc2nccc(Nc3ccc(Oc4cccc5ccccc45)cc3)n2)c1`, with 1150 nM. Molecule `COc1cc(C=NNc2nc(Nc3ccccc3)nc(Nc3ccccc3)n2)ccc1OCc1ccccc1[N+](=O)[O-]` gave an IC50 of 810 nM. Then `CCc1c(CCNCCCCCCNC(C)Cc2ccc3c(c2CC)OCO3)ccc(OC)c1OC` (configuration not stated), with 870 nM; and `CS(=O)(=O)c1ccc(CNCc2ccc(-c3cccc(-c4nc5ccc(F)cc5[nH]4)c3)cc2)cc1`, with 320 nM; and `COc1ccc(Cn2c(Nc3cccc(C(F)(F)F)c3)nc3ccc(C(=O)NCCN4CCCC4)cc32)cc1Cl`, with 750 nM. Then `CC[C@H]1CN2CC[C@H]1C[C@H]2[C@H](O)c1cc(-c2ccc(C)cc2)nc2ccc(OC)cc12`, with 110 nM; and `COc1cccc(C(=O)NC(c2ccccc2OC)c2cc(Cl)c3cccnc3c2O)c1` (configuration not stated), with 1190 nM; and `O=C(NCCCCN1CCC(c2ccc3c(c2OCCN2CCCC2)CCCC3)CC1)c1ccc(-c2ccc(C(F)(F)F)cc2)cc1`, with 450 nM. Then `Nc1ncc(-c2ccc(Cl)c(Cl)c2)c(N)n1`, with 730 nM. As to `CC(C)CNCc1cccc(-c2ccccc2CN(C(=O)Nc2ccccc2)C2CCN(Cc3ccccc3)CC2)c1`, the half-maximal inhibitory concentration (IC50) is 640 nM. Regarding `CCCCCCCOc1ccc(NC(=O)Nc2ccc(Cn3ncc(N4CCCNCC4)c(Cl)c3=O)cc2)cc1`, the concentration for half-maximal inhibition (IC50) came to 920 nM. Then `O=C(/C=C/c1ccc(-c2nc3ccc(Cl)cc3[nH]2)cc1)NC1CCN(Cc2ccccc2)CC1`, with 610 nM.

`Cn1nc(-c2ccc(NC(=O)Nc3cc(C(F)(F)F)ccc3F)c(F)c2)c2cnc(NCCCn3ccnc3)nc21` displayed an IC50 of 740 nM.

`Cc1cc(N[C@@H](CC(C)C)C(=O)NCCc2ccccc2)nc(Nc2ccccc2)n1` gave an IC50 of 820 nM. The IC50 values of the last two molecules are within 1.5-fold of each other.

In the case of `CCn1c(-c2nonc2N)nc2cnc(Oc3cccc(NC(=O)c4ccc(OCCCN5CCCCC5)cc4)c3)cc21`, the IC50 came out at 930 nM. In the case of `COc1ccc(-c2nonc2NC(=O)c2ccc(C(C)(C)C)cc2)cc1OC`, the 50% inhibitory concentration (IC50) stood at 810 nM. Then `NC1=NC(c2ccccc2)(c2ccccc2)C(=O)N1CC1CCC1`, with 750 nM; and `CC(C)c1ccc(NC(=O)Nc2ccc(Cn3ncc(N4CCCNCC4)c(Cl)c3=O)cc2)cc1`, with 1050 nM; and `Cc1c(CCNC(=O)CCCN2CC(C)CC(C)C2)c2ccccc2n1C` (configuration not stated), with 1270 nM. In turn, `NCC1CCCN1Cc1ccc(-c2ccc(-c3nc4ccc(F)cc4[nH]3)cc2)cc1` (configuration not stated) registered an IC50 of 930 nM. Then `COc1ccc(CN(C)CCCc2ccc(NC(=O)c3cc4ccccc4[nH]3)cc2)cc1OC`, with 730 nM; and `CCC(C)(CC)C(=O)n1ncc2c3c(N)nc(N)nc3ccc21`, with 10 nM; and `Cc1cccc2[nH]c(-c3cccc(-c4cccc(NC(=O)CNc5ccc(C(N)=O)cc5)c4)c3)nc12`, with 280 nM. Consider `COc1c(Br)cc(Br)cc1C(C)=O`, for which the IC50 turned out to be 990 nM. Then `COc1ccc2nc3cc(Cl)ccc3c(NCCc3ccccc3)c2c1`, with 950 nM; and `Cc1ccc(-c2ccc3c(c2)C=C(C(=O)NC2CCN(CCNC(=O)c4cccc(C(F)(F)F)c4)CC2)CCC3)cc1`, with 510 nM. Then `COc1ccc(N2CCN(CCCNC(=O)c3ccc(NC(=O)c4cc(Cl)cc(Cl)c4)cc3)CC2)c(OC)c1`, with 270 nM; and `c1ccc(CN2CCN(c3cc(-c4cncc(-c5ccccc5)c4)nc(-c4ccccc4)n3)CC2)cc1`, with 1040 nM; and `COc1ccc(CN(C)C(=O)CCNS(=O)(=O)c2ccc3c(c2)OCCCO3)cc1F`, with 660 nM. Then `CCCC(C)NC[C@@H](O)[C@H](Cc1ccccc1)NC(=O)c1cc(NCC)cc(N2CCCCS2(=O)=O)c1` (some centres not stated), with 160 nM; and `CN(C)CC(=O)NCC(NCCCNc1cc(=O)c2ccccc2[nH]1)c1cc(Br)cc(Br)c1` (configuration not stated), with 1050 nM; and `Nc1ccnc2ccc(NC(=O)CCCCCc3ccccc3)cc12`, with 860 nM. Turning to `Cc1cc(N[C@@H](Cc2ccccc2)C(=O)NCCOc2ccccc2)nc(NCCc2ccccn2)n1`, the IC50 stood at 1520 nM. Then `COc1ccc(NCc2cccc(-c3cccc(CNCCc4ccccc4)c3)c2)cc1`, with 1050 nM. For `Nc1nc(N)c2c(Sc3ccccc3)cccc2n1`, the IC50 turned out to be 650 nM. Then `C[C@H](NC(=O)c1cc(-c2ccc(C(C)(C)C)cc2)no1)C(=O)O` (tested in a mixture with another compound), with 140 nM; and `Cc1cnc(CCNC(=O)c2cc(-c3ccc(Cl)cc3)cs2)[nH]1`, with 240 nM. Then `CN1CCN(Cc2ccc(-c3ccc4c(Nc5ccc(Cl)cc5F)ccnc4c3)o2)CC1`, with 150 nM.

With `COc1ccc(CNCCc2cccs2)cc1-c1cccc(S(=O)(=O)NCCN2CCCC2)c1`, the IC50 worked out at 880 nM. Then `CCOc1cc(C)ccc1C1CCN(CCCCNC(=O)c2ccc(-c3ccc(Cl)cn3)cc2)CC1`, with 1610 nM; and `NC(N)=NN=Cc1c2ccccc2c(Cl)c2ccc(Cl)cc12`, with 230 nM; and `Cc1cc(N[C@@H](CC(C)C)C(=O)NC2CCCC2)nc(NCC2CCCCC2)n1`, with 860 nM. In turn, `COc1cc2c(cc1C=CC(=O)N1CCN(Cc3nc4sc(C)c(C)c4c(=O)[nH]3)CC1)OC(C)C2` (configuration not stated) had an IC50 of 1020 nM. Turning to `Cc1[nH]c2cccc(F)c2c(=O)c1Cc1ccc(Cl)cc1` (tested in a mixture with another compound), the IC50 is 230 nM and 350 nM.

For `O=C(/C=C/c1ccc(Cl)c(Cl)c1)N1CCC(NCc2ccc3[nH]ccc3c2)CC1`, the IC50 came out at 1020 nM. Then `CN(C)CC1CCCN1Cc1ccccc1-c1cnn(C)c(=O)c1Oc1cccc(C#N)c1` (configuration not stated), with 1340 nM. Then `CCOc1ccc2nc(N(CCCn3ccnc3)C(=O)C=Cc3cccs3)sc2c1`, with 780 nM. Then `CN1CCN(c2ccnc3ccc(NC(=O)Nc4ccc(Cl)cc4)cc23)CC1`, with 110 nM.

(Values after PubChem BioAssay AID2305 (GlaxoSmithKline (GSK), 2010).)
